# Measurements from patent US20170368069A1, “USE OF 4-(4-FLUORO-2-METHOXYPHENYL)-N--1,3,5-TRIAZIN-2-AMINE FOR TREATING LEUKEMIAS” (Bayer Pharma Aktiengesellschaft, priority 2015, published 2017).
# Values joined by “and” are separate entries in the source; they are usually repeats but may differ in a detail not shown here. Identical values can stand only once. “Also recorded” adds a separate entry of the source.
# Experiments:
# THP-1 = experiment: Subcutaneous THP-1 leukemia xenograft, efficacy and tolerability; format: in vivo, NOD/SCID mice
# Procedure: (§1) The aim of the present experiments was to assess the in vivo efficacy and tolerability of Compound A′ in monotherapy in four leukemia models subcutaneously implanted in NOD/SCID mice.
# (§2) The experiments included four in vivo efficacy experiments with female NOD/SCID mice bearing subcutaneous leukemia xenografts. Compound A′ was assessed at one dose level in monotherapy. Anti-tumor activity and tolerability of all groups were assessed using the vehicle control group as a reference.
# (§3) Mouse strain, sex: NOD/SCID, female Animals supplied by: Harlan Total number of mice Efficacy test (implanted/randomized): 100/74 Approximate age at implantation: 5-7 weeks Approximate age at randomization: 6-9 weeks
# (§4) The tumor models used in this study were derived from commercially available cell lines.
# (§5) Leukemia cells were subcutaneously injected as cell suspensions into one flank of immunodeficient NOD/SCID mice under isofluorane anaesthesia (5*10^6 cells per injection). In the case of THP-1 cells, matrigel was used to increase implantation efficacy. For this, 1×10^8 leukemia cells were mixed with matrigel and an appropriate volume of the solution containing 5*10^6 cells was injected as described above.
# (§6) At randomization, the volume of growing tumors was initially determined. […] The result of the randomization was documented and maintained with the experimental data. Animals not randomized were euthanized. The day of randomization is designated as day 0 of an experiment.
# (§7) Vehicle: 80% (m/V) PEG400 in water for injection Compound A′: preparation of a dosing solution (2.5 mg/ml) once weekly by diluting the Compound A′ powder at 0.25% (w/v) in vehicle; storage of the dosing solution at 4° C.; dosing volume 10 ml/kg
# (§8) Mice were weighed twice a week. Relative body weights of individual mice in % were calculated by dividing the individual body weight on day X (BWX) by the individual body weight on day 0 (BW0) multiplied by 100 according to the formula: […]
# (§9) Group median relative body weights were calculated as well, considering only the weights of mice that were alive on the day in question.
# (§10) The tumor volumes were determined by two-dimensional measurement with a caliper on the day of randomization (day 0) and then twice weekly (i.e. on the same days on which mice were weighed). Tumor volumes were calculated according to the formulas: […]
# (§11) Anti-tumor activity was evaluated as maximum tumor volume inhibition versus the vehicle control group. Data evaluation was performed using Oncotest proprietary software.
# (§12) Tumor inhibition for a particular day (T/C in %) was calculated from the ratio of the median RTV values of test versus control groups multiplied by 100.
# (§13) The minimum (or optimum) T/C % value recorded for a particular test group during an experiment represents the maximum anti-tumor activity for the respective treatment. T/C values were calculated if at least 50% of the randomized animals in a group were alive on the day in question.
# (§14) Group optimum T/C values (in %) were used for activity rating as follows:
# (§15) All leukemia models were implanted by subcutaneous injection of the corresponding cell line into female NOD/SCID mice. Compound A′ was administered orally at one dose level (25 mg/kg/day) in monotherapy once daily and treatment started once subcutaneous tumors were established. A vehicle-treated control group was included in each experiment. […] Anti-tumor activity (tumor growth inhibition) and tolerability of all groups were assessed using the vehicle control group as a reference.
# [1] = system: leukemia xenograft models MV4-11, NOMO-1, THP-1 and HL-60; experiment: Leukemia xenograft models, statements pooled over several models; format: in vivo; conditions: leukemia xenografts bearing mice, 25 mg/kg/day p.o.
# Procedure: as §1, §2
# Mouse strain, sex: NOD/SCID, female Animals supplied by: Harlan Total number of mice Efficacy test (implanted/randomized): 100/74 Approximate age at implantation: 5-7 weeks Approximate age at randomization: 6-9 weeks […]
# (§16) At randomization, the volume of growing tumors was initially determined. […]
# as §8, §9, §10
# KG-1 = experiment: Proliferation assay, KG-1; format: cell-based; conditions: Homo sapiens; KG-1, acute myeloid leukemia; after 72 hours of incubation
# OCI-AML-2 = experiment: Proliferation assay, OCI-AML-2; format: cell-based; conditions: Homo sapiens, OCI-AML2; OCI-AML-2, acute myeloid leukemia; after 72 hours of incubation
# HL-60 [2] = experiment: Subcutaneous HL-60 leukemia xenograft, efficacy and tolerability; format: in vivo, NOD/SCID mice; conditions: 25 mg/kg/day p.o.
# Procedure: as §1, §2, §3, §4
# Leukemia cells were subcutaneously injected as cell suspensions into one flank of immunodeficient NOD/SCID mice under isofluorane anaesthesia (5*10^6 cells per injection). In the case of THP-1 cells, matrigel was used to increase implantation efficacy. […]
# as §16, §8, §9, §10
# (§17) Anti-tumor activity was evaluated as maximum tumor volume inhibition versus the vehicle control group. […]
# Tumor inhibition for a particular day (T/C in %) was calculated from the ratio of the median RTV values of test versus control groups multiplied by 100. […]
# MV4-11 [3] = experiment: Proliferation assay, MV4-11; format: cell-based; conditions: Homo sapiens; MV4-11, acute myeloid leukemia, 11q23 positive; after 72 hours of incubation
# PL-21 = experiment: Proliferation assay, PL-21; format: cell-based; conditions: PL-21, acute myeloid leukemia; after 72 hours of incubation
# MOLM-13 = experiment: Proliferation assay, MOLM-13; format: cell-based; conditions: Homo sapiens; MOLM-13, acute myeloid leukemia, 11q23 positive; after 72 hours of incubation
# HL-60 [4] = experiment: Proliferation assay, HL-60; format: cell-based; conditions: Homo sapiens; HL-60, acute leukemia; after 72 hours of incubation with the substance
# MV4-11 [5] = experiment: Subcutaneous MV4-11 leukemia xenograft, efficacy and tolerability; format: in vivo, NOD/SCID mice
# Procedure: as §1, §2, §3, §4, §5
# At randomization, the volume of growing tumors was initially determined. […] The result of the randomization was documented and maintained with the experimental data. Animals not randomized were euthanized. The day of randomization is designated as day 0 of an experiment. […]
# as §8, §9, §10, §17, §12
# The minimum (or optimum) T/C % value recorded for a particular test group during an experiment represents the maximum anti-tumor activity for the respective treatment. T/C values were calculated if at least 50% of the randomized animals in a group were alive on the day in question. […]
# NOMO-1 [6] = experiment: Subcutaneous NOMO-1 leukemia xenograft, efficacy and tolerability; format: in vivo, NOD/SCID mice
# Procedure: as §1, §2, §3, §4, §5, §6, §7, §8, §9, §10, §11, §12, §13, §14, §15
# NOMO-1 [7] = experiment: Proliferation assay, NOMO-1; format: cell-based; conditions: Homo sapiens; NOMO-1, acute myeloid leukemia, 11q23 positive; after 72 hours of incubation
smiles,measurement,setting,value
"COc1cc(F)ccc1-c1ncnc(Nc2cccc(CS(C)(=N)=O)c2)n1 (single isomer, unassigned; (+)) [Compound A′, (+)-4-(4-Fluoro-2-methoxyphenyl)-N-{3-[(S-methylsulfonimidoyl)methyl]phenyl}-1,3,5-triazin-2-amine]",Min. T/C,"THP-1; THP-1 xenograft (11q23 translocation), 25 mg/kg/day p.o., days 0-25, minimum on day 14",21.0 (14) %
same,anti-tumor activity (in words),"THP-1; THP-1 xenograft, 25 mg/kg/day p.o.",High anti-tumor activity
same,Activity Rating,"THP-1; THP-1 xenograft, 25 mg/kg/day p.o., days 0-25, rating from group optimum T/C",+ (Moderate activity 25% ≦ T/C < 50%)
same,group median BWL (body weight loss),"THP-1; THP-1 xenograft-bearing mice, 25 mg/kg/day p.o.",up to 0.4%
same,Tumor growth versus vehicle control group,"THP-1; THP-1 xenograft, Mann-Whitney-Wilcoxon U-test",significantly reduced; also recorded: significantly attenuated
same,tolerability,[1],acceptable tolerability profile
same,IC50,KG-1,670 nM
same,IC50,OCI-AML-2,323 nM
same,Min. T/C,"HL-60 [2]; HL-60 xenograft (no 11q23 translocation), schedule days 0-6, 11-17, minimum on day 14, 25 mg/kg/day",63.9% and 63.9 (14) %
same,anti-tumor activity (in words),HL-60 [2]; HL-60 xenograft,borderline anti-tumor activity
same,Activity Rating,"HL-60 [2]; HL-60 xenograft, days 0-6, 11-17, rating from group optimum T/C",+/− (Borderline activity 50% ≦ T/C < 65%)
same,IC50,MV4-11 [3],386 nM
same,IC50,PL-21,192 nM
same,IC50,MOLM-13,320 nM
same,IC50,HL-60 [4],1120 nM
same,Min. T/C,"MV4-11 [5]; MV4-11 xenograft (11q23 translocation), 25 mg/kg/day p.o., days 0-25, minimum on day 14",11.9 (14) %
same,anti-tumor activity (in words),"MV4-11 [5]; MV4-11 xenograft, 25 mg/kg/day p.o.",High anti-tumor activity
same,Activity Rating,"MV4-11 [5]; MV4-11 xenograft, 25 mg/kg/day p.o., days 0-25, rating from group optimum T/C",++ (High activity 10% ≦ T/C < 25%)
same,Tumor growth versus vehicle control group,"MV4-11 [5]; MV4-11 xenograft, Mann-Whitney-Wilcoxon U-test",significantly reduced; also recorded: significantly attenuated
same,Min. T/C,"NOMO-1 [6]; NOMO-1 xenograft (11q23 translocation), 25 mg/kg/day p.o., days 0-25, minimum on day 14",19.7 (14) %
same,anti-tumor activity (in words),"NOMO-1 [6]; NOMO-1 xenograft, 25 mg/kg/day p.o.",High anti-tumor activity
same,Activity Rating,"NOMO-1 [6]; NOMO-1 xenograft, 25 mg/kg/day p.o., days 0-25, rating from group optimum T/C",++ (High activity 10% ≦ T/C < 25%)
same,group median BWL (body weight loss),"NOMO-1 [6]; NOMO-1 xenograft-bearing mice, 25 mg/kg/day p.o.",up to 0.4%
same,Tumor growth versus vehicle control group,"NOMO-1 [6]; NOMO-1 xenograft, Mann-Whitney-Wilcoxon U-test",significantly reduced; also recorded: significantly attenuated
same,IC50,NOMO-1 [7],328 nM
